From ChEMBL document CHEMBL1149774, “Synthesis of N-(5,7-diamino-3-phenyl-quinoxalin-2-yl)-3,4,5-substituted anilines and N-[4[(5,7-diamino-3-phenylquinoxalin-2-yl)amino]benzoyl]-l-glutamic acid diethyl ester: evaluation of in vitro anti-cancer and anti-folate activities” (Eur J Med Chem, 2008)
The source made the active and inactive calls. No cut-off for these calls is given here.

Legend:
HOP-92 = test: Growth inhibition of human HOP92 cells after 48 hrs by SRB staining method; type: functional; details: HOP-92, 48 h; for TGI: read-out: pTGI (converted)
NCI-H322M = test: Growth inhibition of human NCI-H322M cells after 48 hrs by SRB staining method; type: functional
NCI-H460 = test: Growth inhibition of human NCI-H460 cells after 48 hrs by SRB staining method; type: functional; details: NCI-H460, 48 h; for TGI: read-out: pTGI (converted)
COLO 205 = test: Growth inhibition of human COLO205 cells after 48 hrs by SRB staining method; type: functional; details: COLO 205, 48 h; for TGI: read-out: pTGI (converted)
KM12 = test: Growth inhibition of human KM12 cells after 48 hrs by SRB staining method; type: functional; details: KM12, 48 h; for TGI: read-out: pTGI (converted)
SF-539 = test: Growth inhibition of human SF539 cells after 48 hrs by SRB staining method; type: functional; details: SF-539, 48 h; for TGI: read-out: pTGI (converted)
LOX IMVI = test: Growth inhibition of human LOX IMVI cells after 48 hrs by SRB staining method; type: functional; details: for TGI: read-out: pTGI (converted)
Malme-3M = test: Growth inhibition of human MALME-3M cells after 48 hrs by SRB staining method; type: functional; details: for TGI: read-out: pTGI (converted)
M14 = test: Growth inhibition of human M14 cells after 48 hrs by SRB staining method; type: functional; details: M14, 48 h; for TGI: read-out: pTGI (converted)
SK-MEL-28 = test: Growth inhibition of human SK-MEL-28 cells after 48 hrs by SRB staining method; type: functional; details: SK-MEL-28, 48 h; for CC50: read-out: pLC50 (the source's name) (converted); for TGI: read-out: pTGI (converted)
SK-MEL-5 = test: Growth inhibition of human SK-MEL-5 cells after 48 hrs by SRB staining method; type: functional; details: SK-MEL-5, 48 h; for TGI: read-out: pTGI (converted)
UACC-257 = test: Growth inhibition of human UACC257 cells after 48 hrs by SRB staining method; type: functional; details: UACC-257, 48 h; for TGI: read-out: pTGI (converted)
OVCAR-8 = test: Growth inhibition of human OVCAR8 cells after 48 hrs by SRB staining method; type: functional; details: OVCAR-8, 48 h; for CC50: read-out: pLC50 (the source's name) (converted); for TGI: read-out: pTGI (converted)
SK-OV-3 = test: Growth inhibition of human SKOV3 cells after 48 hrs by SRB staining method; type: functional; details: SK-OV-3, 48 h; for CC50: read-out: pLC50 (the source's name) (converted); for TGI: read-out: pTGI (converted)
A498 = test: Growth inhibition of human A498 cells after 48 hrs by SRB staining method; type: functional; details: A498, 48 h
MCF7 = test: Growth inhibition of human MCF7 cells after 48 hrs by SRB staining method; type: functional; details: MCF7, 48 h; for CC50: read-out: pLC50 (the source's name) (converted); for TGI: read-out: pTGI (converted)
MDA-MB-231 = test: Growth inhibition of human MDA-MB-231 cells after 48 hrs by SRB staining method; type: functional; details: MDA-MB-231, 48 h; for CC50: read-out: pLC50 (the source's name) (converted); for TGI: read-out: pTGI (converted)
MDA-MB-435 = test: Growth inhibition of human MDA-MB-435 cells after 48 hrs by SRB staining method; type: functional; details: MDA-MB-435, 48 h; for CC50: read-out: pLC50 (the source's name) (converted); for TGI: read-out: pTGI (converted)
BT-549 = test: Growth inhibition of human BT549 cells after 48 hrs by SRB staining method; type: functional; details: BT-549, 48 h; for CC50: read-out: pLC50 (the source's name) (converted); for TGI: read-out: pTGI (converted)
Dihydrofolate reductase = target: T1, Dihydrofolate reductase (Homo sapiens, UniProt P00374); test: Inhibition of human dihydrofolate reductase
T1 sequence (P00374 whole entry): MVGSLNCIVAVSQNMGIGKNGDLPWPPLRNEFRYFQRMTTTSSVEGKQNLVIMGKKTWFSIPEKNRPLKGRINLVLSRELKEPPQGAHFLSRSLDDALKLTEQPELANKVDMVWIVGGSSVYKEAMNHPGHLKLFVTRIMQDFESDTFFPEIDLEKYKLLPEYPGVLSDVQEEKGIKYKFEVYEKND

MDA-N = test: Growth inhibition of human MDA-N cells after 48 hrs by SRB staining method; type: functional
A549 = test: Growth inhibition of human A549 cells after 48 hrs by SRB staining method; type: functional; details: A549, 48 h; for CC50: read-out: pLC50 (the source's name) (converted); for TGI: read-out: pTGI (converted)
SR = test: Growth inhibition of human SR cells after 48 hrs by SRB staining method; type: functional
MOLT-4 = test: Growth inhibition of human MOLT4 cells after 48 hrs by SRB staining method; type: functional; details: MOLT-4, 48 h; for CC50: read-out: pLC50 (the source's name) (converted); for TGI: read-out: pTGI (converted)
Thymidylate synthase [1] = target: Thymidylate synthase (Homo sapiens, UniProt P04818)
Thymidylate synthase (Homo sapiens, UniProt P04818), sequence (P04818 whole entry): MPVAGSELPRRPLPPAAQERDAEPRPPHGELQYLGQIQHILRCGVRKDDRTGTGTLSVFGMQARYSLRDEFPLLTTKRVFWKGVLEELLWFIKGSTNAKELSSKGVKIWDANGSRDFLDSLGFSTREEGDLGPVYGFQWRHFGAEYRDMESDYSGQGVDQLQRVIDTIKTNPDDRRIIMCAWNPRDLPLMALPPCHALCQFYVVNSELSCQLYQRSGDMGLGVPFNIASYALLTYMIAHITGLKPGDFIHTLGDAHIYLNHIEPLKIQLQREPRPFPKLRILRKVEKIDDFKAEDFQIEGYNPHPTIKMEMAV
Description: Inhibition of human thymidylate synthase

[2] = target: T2, Dihydrofolate reductase (Homo sapiens) (UniProt P00374); test: Inhibition of human dihydrofolate reductase at 10 uM
T2 sequence (whole entry): T1 sequence (P00374 whole entry)

Thymidylate synthase [3] = target: T3, Thymidylate synthase (Lactobacillus casei, UniProt P00469)
T3 sequence (P00469 whole entry): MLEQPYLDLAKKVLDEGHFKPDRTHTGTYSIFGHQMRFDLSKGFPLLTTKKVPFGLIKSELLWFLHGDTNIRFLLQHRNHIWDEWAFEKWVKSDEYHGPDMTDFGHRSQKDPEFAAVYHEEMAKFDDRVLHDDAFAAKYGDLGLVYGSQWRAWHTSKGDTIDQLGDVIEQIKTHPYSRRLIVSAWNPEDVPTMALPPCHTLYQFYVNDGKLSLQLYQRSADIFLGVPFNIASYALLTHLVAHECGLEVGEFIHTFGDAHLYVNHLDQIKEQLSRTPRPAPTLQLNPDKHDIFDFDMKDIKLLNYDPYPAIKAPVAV
Description: Inhibition of Lactobacillus casei thymidylate synthase

[4] = read-out: pLC50 (the source's name) (converted)

COc1cc(Nc2nc3cc(N)cc(N)c3nc2-c2ccccc2)cc(OC)c1OC
GI50 (HOP-92): 2.75 µM
LC50 (HOP-92): 91.2 µM
TGI (HOP-92): 20.9 µM
LC50 (NCI-H322M): > 100 µM
GI50 (NCI-H460): 17 µM
LC50 (concentration killing 50% of cells) (NCI-H460): > 100 µM
TGI (NCI-H460): 52.5 µM
GI50 (COLO 205): 14.1 µM
LC50 (COLO 205): 52.5 µM
TGI (COLO 205): 26.9 µM
GI50 (KM12): 10.7 µM
LC50 (KM12): 81.3 µM
TGI (KM12): 29.5 µM
GI50 (SF-539): 14.8 µM
LC50 (SF-539): 56.2 µM
TGI (SF-539): 28.8 µM
GI50 (LOX IMVI): 18.6 µM
LC50 (LOX IMVI): > 100 µM
TGI (LOX IMVI): 49 µM
GI50 (Malme-3M): 12.9 µM
LC50 (Malme-3M): 61.7 µM
TGI (Malme-3M): 28.2 µM
GI50 (M14): 19.5 µM
LC50 (M14): > 100 µM
TGI (M14): 44.7 µM
GI50 (SK-MEL-28): 1.45 µM
CC50 (SK-MEL-28): 63.1 µM
TGI (SK-MEL-28): 20.9 µM
GI50 (SK-MEL-5): 12.9 µM
LC50 (SK-MEL-5): 58.9 µM
TGI (SK-MEL-5): 27.5 µM
GI50 (UACC-257): 29.5 µM
LC50 (UACC-257): > 100 µM
TGI (UACC-257): > 100 µM
GI50 (OVCAR-8): 15.5 µM
CC50 (OVCAR-8): 79.4 µM
TGI (OVCAR-8): 34.7 µM
GI50 (SK-OV-3): 22.9 µM
CC50 (SK-OV-3): > 100 µM
TGI (SK-OV-3): 57.5 µM
GI50 (A498): 31.6 µM
CC50 (A498; [4]): > 100 µM
TGI (A498; read-out: pTGI (converted)): > 100 µM
GI50 (MCF7): 25.7 µM
CC50 (MCF7): > 100 µM
TGI (MCF7): 95.5 µM
GI50 (MDA-MB-231): 11.2 µM
CC50 (MDA-MB-231): 77.6 µM
TGI (MDA-MB-231): 29.5 µM
GI50 (MDA-MB-435): 7.41 µM
CC50 (MDA-MB-435): 69.2 µM
TGI (MDA-MB-435): 24.5 µM
GI50 (BT-549): 17 µM
CC50 (BT-549): 67.6 µM
TGI (BT-549): 17 µM
Ki (Dihydrofolate reductase): 0.1 µM
GI50 (MDA-N): 10.5 µM
CC50 (MDA-N; [4]): 93.3 µM
TGI (MDA-N; read-out: pTGI (converted)): 31.6 µM
GI50 (A549): 29.5 µM
CC50 (A549): > 100 µM
TGI (A549): > 100 µM
GI50 (SR): 3.31 µM
CC50 (SR; [4]): 72.4 µM
TGI (SR; read-out: pTGI (converted)): 15.8 µM
GI50 (MOLT-4): 2.57 µM
CC50 (MOLT-4): 56.2 µM
TGI (MOLT-4): 18.2 µM
Ki (Thymidylate synthase [1]): 51 µM

CCOC(=O)CCC(NC(=O)c1ccc(Nc2nc3cc(N)cc(N)c3nc2-c2ccccc2)cc1)C(=O)OCC (configuration not stated)
GI50 (HOP-92): 10.7 µM
LC50 (HOP-92): 81.3 µM
TGI (HOP-92): 29.5 µM
GI50 (NCI-H322M): 41.7 µM
LC50 (NCI-H322M): > 100 µM
TGI (NCI-H322M; read-out: pTGI (converted)): > 100 µM
GI50 (NCI-H460): 8.51 µM
LC50 (concentration killing 50% of cells) (NCI-H460): > 100 µM
TGI (NCI-H460): 47.9 µM
GI50 (COLO 205): 8.91 µM
LC50 (COLO 205): > 100 µM
TGI (COLO 205): > 100 µM
GI50 (KM12): 28.2 µM
LC50 (KM12): > 100 µM
TGI (KM12): > 100 µM
GI50 (SF-539): 27.5 µM
LC50 (SF-539): > 100 µM
TGI (SF-539): > 100 µM
GI50 (LOX IMVI): 8.51 µM
LC50 (LOX IMVI): > 100 µM
TGI (LOX IMVI): > 100 µM
GI50 (Malme-3M): 2.82 µM
LC50 (Malme-3M): > 100 µM
TGI (Malme-3M): 6.17 µM
GI50 (M14): 2.51 µM
LC50 (M14): 75.9 µM
TGI (M14): 5.89 µM
GI50 (SK-MEL-28): 1.51 µM
CC50 (SK-MEL-28): 5.89 µM
TGI (SK-MEL-28): 3.02 µM
GI50 (SK-MEL-5): 6.61 µM
LC50 (SK-MEL-5): > 100 µM
TGI (SK-MEL-5): 31.6 µM
GI50 (UACC-257): 2 µM
LC50 (UACC-257): > 100 µM
TGI (UACC-257): 4.9 µM
GI50 (OVCAR-8): 33.9 µM
CC50 (OVCAR-8): > 100 µM
TGI (OVCAR-8): > 100 µM
GI50 (SK-OV-3): 21.9 µM
CC50 (SK-OV-3): > 100 µM
TGI (SK-OV-3): 47.9 µM
GI50 (MCF7): 29.5 µM
CC50 (MCF7): > 100 µM
TGI (MCF7): > 100 µM
GI50 (MDA-MB-231): 8.91 µM
CC50 (MDA-MB-231): 81.3 µM
TGI (MDA-MB-231): 28.2 µM
GI50 (MDA-MB-435): 12 µM
CC50 (MDA-MB-435): > 100 µM
TGI (MDA-MB-435): 36.3 µM
GI50 (BT-549): 41.7 µM
CC50 (BT-549): > 100 µM
TGI (BT-549): > 100 µM
Activity [2]: inactive
GI50 (A549): 20 µM
CC50 (A549): > 100 µM
TGI (A549): > 100 µM
GI50 (MOLT-4): 2.4 µM
CC50 (MOLT-4): > 100 µM
TGI (MOLT-4): 7.41 µM
Ki (Thymidylate synthase [3]): 27 µM
Ki (Thymidylate synthase [1]): 34 µM
